From PubChem BioAssay (NCI) come the findings set out here.

Some test systems named below: ACHN renal; CCRF-CEM leukemia; HCT-116 colon; HCT-15 colon; HOP-62 NSCLC; HOP-92 NSCLC; HT29 colon; NCI-H226 lung; OVCAR-5 ovarian; RPMI-8226 leukemia; SF-295 CNS; SK-MEL-2 melanoma; SK-OV-3 ovarian; SNB-19 CNS; SNB-75 CNS; TK-10 renal; UACC-257 melanoma.
Holding throughout (experiment): NCI anticancer screen, dose series, 48 h

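These data come from cells grown in 96-well plates and exposed to compound for 48 hours at five concentrations. Here, GI50 denotes the concentration required for 50% inhibition of growth. TGI: concentration producing complete growth inhibition.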

`COc1ccc2c(C)cc(N/N=C/c3sccc3C)nc2c1`: the TGI was over 100 µM in the experiment on ACHN renal; over 100 µM with CCRF-CEM leukemia; 16.1 µM in the experiment with HCT-116 colon; 20.3 µM in the experiment on HCT-15 colon; 28.4 µM with HOP-62 NSCLC; 47.5 µM with HOP-92 NSCLC. Besides, the TGI with HT29 colon came out at 12.5 µM; with NCI-H226 lung it was 25.9 µM; in the experiment with OVCAR-5 ovarian, 28.1 µM; in the experiment on RPMI-8226 leukemia it was 26.6 µM; in the experiment with SF-295 CNS it was 28.4 µM; in the experiment with SK-MEL-2 melanoma, 29.8 µM. The TGI with SK-OV-3 ovarian was determined as 31.9 µM; in the experiment on SNB-19 CNS it was 41.6 µM; in the experiment with SNB-75 CNS, 26.1 µM; with TK-10 renal, 43.3 µM; in the experiment with UACC-257 melanoma it was 22.4 µM.
`CCOc1ccc(C2=C(Cl)c3cc(OC)c(OC)cc3C2Cl)cc1` (stereo not given): the TGI in the experiment with ACHN renal is over 100 µM; with CCRF-CEM leukemia, over 100 µM; with HCT-15 colon, over 100 µM; in the experiment on HOP-92 NSCLC, 86.5 µM; in the experiment on HT29 colon, over 100 µM; with NCI-H226 lung, over 100 µM. The TGI is 73 µM in the experiment with RPMI-8226 leukemia; over 100 µM in the experiment on SF-295 CNS; 70.6 µM in the experiment with SK-MEL-2 melanoma; over 100 µM with SK-OV-3 ovarian; over 100 µM in the experiment on SNB-19 CNS; over 100 µM in the experiment on SNB-75 CNS. In addition, the TGI in the experiment with TK-10 renal is over 100 µM.
Take `Cc1c2ccccc2c(CO)c2cc(F)c3ccccc3c12`: the TGI is 58.2 µM with ACHN renal; 68 µM in the experiment on CCRF-CEM leukemia; 40.3 µM in the experiment with HCT-116 colon; 92.9 µM in the experiment on HOP-62 NSCLC; 78.4 µM in the experiment with HOP-92 NSCLC; 49 µM with HT29 colon. Also, the TGI in the experiment with NCI-H226 lung is over 100 µM; in the experiment on OVCAR-5 ovarian it was 80.6 µM; in the experiment with SF-295 CNS it was 57.8 µM; in the experiment with SK-MEL-2 melanoma it was 36.7 µM; with SK-OV-3 ovarian, 73.6 µM; with SNB-19 CNS, over 100 µM. Besides, the values for the TGI in the experiment with SNB-75 CNS, in the experiment on TK-10 renal and in the experiment on UACC-257 melanoma were over 100 µM, 71.8 µM and over 100 µM, respectively.
`CN1C[C@H]2[C@@H](C1=O)[C@H](c1ccc([N+](=O)[O-])cc1)ON2C`: the TGI in the experiment with ACHN renal, with CCRF-CEM leukemia, in the experiment on HCT-116 colon, in the experiment with HCT-15 colon, in the experiment with HOP-62 NSCLC and in the experiment on HOP-92 NSCLC was over 100 µM in each case. Moreover, the TGI in the experiment on HT29 colon, with NCI-H226 lung, in the experiment on OVCAR-5 ovarian, in the experiment with RPMI-8226 leukemia, in the experiment with SF-295 CNS and with SK-MEL-2 melanoma was over 100 µM in each case. Further, the TGI with SK-OV-3 ovarian, in the experiment with SNB-19 CNS, in the experiment on TK-10 renal and with UACC-257 melanoma was over 100 µM throughout.
In the case of `O=C1ON(Cc2ccccc2)C(c2ccccc2)N1c1ccccc1` (stereo not given), the TGI with CCRF-CEM leukemia, in the experiment with HCT-116 colon, with HCT-15 colon, in the experiment on HOP-62 NSCLC, in the experiment with HOP-92 NSCLC and in the experiment with HT29 colon was over 100 µM each time. Moreover, the TGI with NCI-H226 lung, with OVCAR-5 ovarian, with RPMI-8226 leukemia, in the experiment on SF-295 CNS, in the experiment on SK-MEL-2 melanoma and in the experiment with SK-OV-3 ovarian was over 100 µM throughout. The TGI in the experiment on SNB-19 CNS, with SNB-75 CNS and in the experiment on UACC-257 melanoma was over 100 µM throughout.
Consider `COc1cc(C2C(Cl)C(=O)N2NC(=O)c2ccc(NC(C)=O)cc2)cc(Br)c1O` (stereo not given), for which the TGI with ACHN renal, with CCRF-CEM leukemia, with HCT-116 colon, in the experiment on HOP-62 NSCLC, in the experiment on HOP-92 NSCLC and in the experiment with HT29 colon was over 100 µM in each case. Further, the TGI in the experiment on NCI-H226 lung, in the experiment with OVCAR-5 ovarian, in the experiment on RPMI-8226 leukemia, in the experiment on SF-295 CNS, in the experiment with SK-MEL-2 melanoma and in the experiment with SK-OV-3 ovarian was over 100 µM in each case. Also, the TGI with SNB-19 CNS, in the experiment on SNB-75 CNS, in the experiment with TK-10 renal and in the experiment on UACC-257 melanoma was over 100 µM throughout.
With `CCCCCCNC(=O)c1cc(C#Cc2cc(OC)ccc2OC)ccc1OC`, the TGI with ACHN renal, with CCRF-CEM leukemia, in the experiment with HCT-116 colon, in the experiment with HCT-15 colon, in the experiment with HOP-62 NSCLC and in the experiment on HOP-92 NSCLC was over 100 µM each time. Also, the TGI in the experiment on HT29 colon, in the experiment with OVCAR-5 ovarian, in the experiment on RPMI-8226 leukemia, with SF-295 CNS, in the experiment on SK-MEL-2 melanoma and with SK-OV-3 ovarian was over 100 µM in each case. The TGI in the experiment with SNB-19 CNS, in the experiment on TK-10 renal and with UACC-257 melanoma was over 100 µM each time. The GI50 was 7.9 µM with CCRF-CEM leukemia, 6.9 µM in the experiment on HCT-116 colon and 11.8 µM in the experiment on HOP-62 NSCLC.
Turning to `c1ccc2c(c1)ccc1ncccc12`, the TGI in the experiment with ACHN renal, in the experiment on HCT-116 colon, in the experiment on HCT-15 colon, in the experiment with HOP-62 NSCLC, with HOP-92 NSCLC and in the experiment on HT29 colon was over 100 µM in each case. Moreover, the TGI in the experiment on NCI-H226 lung, in the experiment with OVCAR-5 ovarian, with RPMI-8226 leukemia, in the experiment with SF-295 CNS, with SK-MEL-2 melanoma and in the experiment with SNB-19 CNS was over 100 µM throughout. The TGI in the experiment with SNB-75 CNS, in the experiment with TK-10 renal and in the experiment on UACC-257 melanoma was over 100 µM in each case.
